These are literature values, as cited in patent US6573299B1, “Method and compositions for treatment of the aging eye” (Advanced Medical Instruments, priority 1999, dated 2003).

For series [1] the following is noted: long term high intake, greater than 1,000 mg/day.
The test system of series [2] is nitric oxide synthase.
Assay in series [3]: not given
This is another data set of the same source.

For series [4] the following is noted: diet of 6 mg of lutein per day.
Series [5] has as its system retinal ganglion cells. The settings on record: treated animals.
In series [6] the test system is tumor necrosis factor-alpha (TNF-alpha) and nitric oxide production.

As for `O=C1O[C@H]([C@@H](O)CO)C(O)=C1O` [ascorbic acid], the risk of cataracts entry in series [1] is “substantially reduced risk of cataracts”.
Regarding Zinc, for the setting “clinical trial, high-dose zinc supplementation”, the “loss of visual acuity in patients with AMD” value is recorded as “reduction in the loss of visual acuity”. For the setting “study published in 1988”, the AMD result was “improved AMD”. Also, the “nitric oxide synthase inhibition” value in series [2] was “very potent inhibitor”.
`CCCCCCCCCCCCCCCC(=O)OC[C@H](O)[C@H]1OC(=O)C(O)=C1O` [ascorbyl palmitate]: the “erythema from UV injured skin” value in series [3] (5% lotion) is on record as “effective in reducing erythema”. The “erythema after exposure to UVB” value in series [3] (skin pretreated topically, lecithin gel base, compared to untreated skin) is recorded as “decreased erythema”.
Turning to `CC1=C[C@H](O)CC(C)(C)[C@H]1/C=C/C(C)=C/C=C/C(C)=C/C=C/C=C(C)/C=C/C=C(C)/C=C/C1=C(C)C[C@@H](O)CC1(C)C` [lutein], in series [4], the “lower prevalence of AMD” value was 43%.
With `N=C(N)NN` [aminoguanidine], the “loss of retinal ganglion cells” value in series [5] is on record as “reduction in the loss of retinal ganglion cells”.
Take `Oc1ccc(C=Cc2cc(O)cc(O)c2)cc1` [Resveratrol, 3,5,4′-trihydroxystilbene]: the “nitric oxide synthase inhibition” value in series [2] is given as “suppresses nitric oxide synthase”. Also, the “TNF-alpha and nitric oxide production” value in series [6] is “inhibit tumor necrosis factor-alpha (TNF-alpha) and nitric oxide production”.
